From the OligoGym collection
These antisense oligonucleotides have a phosphorothioate backbone; sugars and methylation of C are not fully specified.

How the values were obtained:
Conditions in all cases: ASO
[1] = molecular target: NCOA1
[2] = molecular target: NCOA2
[3] = molecular target: MAP4K4
[4] = molecular target: CHUK
Also: test concentration or dose not given here.

Question: For GAGCTAATACACTGGTCT, which remaining target (mRNA or protein) (fraction of control) [1] is on record?
Answer: 0.55

Question: For GCAAGCTACCTGTGGAGT, which remaining target (mRNA or protein) (fraction of control) [2] is on record?
Answer: 0.5

Question: How did the remaining target (mRNA or protein) (fraction of control) [3] turn out when GCATGGAATCCAGCACAGGA was run?
Answer: 0.69

Question: For GCCGTACATCTTCCACTGCT, which remaining target (mRNA or protein) (fraction of control) [3] is on record?
Answer: 0.45

Question: For GCCTTGATTTATTTTGGAGT, which remaining target (mRNA or protein) (fraction of control) [3] is on record?
Answer: 0.92

Question: How did the remaining target (mRNA or protein) (fraction of control) [1] turn out when GCGTTGCTTGTTGTGGTG was run?
Answer: 0.43

Question: GCTCCTTTCCTGCTGCGGTG was tested. Which remaining target (mRNA or protein) (fraction of control) [3] did it give?
Answer: 0.37

Question: Which remaining target (mRNA or protein) (fraction of control) [3] does the source give for GCTCTCATTGGATGCATGTC here?
Answer: 0.39

Question: With GCTGGGTTGGCCTGAGAC as the sequence, how does the remaining target (mRNA or protein) (fraction of control) [2] read?
Answer: ≥ 1

Question: Which remaining target (mRNA or protein) (fraction of control) [4] does the source give for GCTGTCACTGTAGGAGTG here?
Answer: 0.75

Question: Which remaining target (mRNA or protein) (fraction of control) [2] does the source give for GCTGTGCTTGGAGGCGAT here?
Answer: 0.43

Question: Which remaining target (mRNA or protein) (fraction of control) [2] does the source give for GGACATAGCAAGTCATCT here?
Answer: 0.62

Question: GGACTCGTCAGCCCCTTCCT was tested. Which remaining target (mRNA or protein) (fraction of control) [3] did it give?
Answer: 0.16

Question: With GGATCATTGTGAAGTATTTT as the sequence, how does the remaining target (mRNA or protein) (fraction of control) [3] read?
Answer: 0.84

Question: GGATTGACCGAGGGATTT was tested. Which remaining target (mRNA or protein) (fraction of control) [1] did it give?
Answer: 0.52

Question: Which remaining target (mRNA or protein) (fraction of control) [2] does the source give for GGATTTCCCTCTGTCTCT here?
Answer: 0.32

Question: For GGCCCCAGCGCATCCTTG, which remaining target (mRNA or protein) (fraction of control) [2] is on record?
Answer: 0.45

Question: With GGGAAAAGCTGTGGTAAT as the sequence, how does the remaining target (mRNA or protein) (fraction of control) [2] read?
Answer: 0.79

Question: How did the remaining target (mRNA or protein) (fraction of control) [4] turn out when GGTAACAGAAAAGAAATT was run?
Answer: ≥ 1

Question: How did the remaining target (mRNA or protein) (fraction of control) [3] turn out when GGTACGATCTATATGATCCT was run?
Answer: 0.8

Question: With GGTCTGAGCTCTGCTGGC as the sequence, how does the remaining target (mRNA or protein) (fraction of control) [1] read?
Answer: 0.24

Question: How did the remaining target (mRNA or protein) (fraction of control) [1] turn out when GGTTATTCAGTCAGTAGC was run?
Answer: 0.57

Question: How did the remaining target (mRNA or protein) (fraction of control) [3] turn out when GTACGTCCATTTGTTGAAAT was run?
Answer: 0.51

Question: With GTAGGCACGGAGGTCACT as the sequence, how does the remaining target (mRNA or protein) (fraction of control) [2] read?
Answer: ≥ 1

Question: For GTCCCCGCCTACCAGATT, which remaining target (mRNA or protein) (fraction of control) [1] is on record?
Answer: 0.56

Question: How did the remaining target (mRNA or protein) (fraction of control) [1] turn out when GTGGTTATTCAGTCAGTA was run?
Answer: 0.56

Question: With GTTATACCTTAGATACTG as the sequence, how does the remaining target (mRNA or protein) (fraction of control) [2] read?
Answer: 0.84

Question: Which remaining target (mRNA or protein) (fraction of control) [1] does the source give for GTTCATTCCTGGCATCTG here?
Answer: 0.66

Question: Which remaining target (mRNA or protein) (fraction of control) [1] does the source give for TAAAAGTGGTTATTCAGT here?
Answer: 0.79

Question: For TAAACCTGACTGCTGCCACC, which remaining target (mRNA or protein) (fraction of control) [3] is on record?
Answer: 0.53

Question: Which remaining target (mRNA or protein) (fraction of control) [4] does the source give for TAATCTGGATTTCATGGC here?
Answer: ≥ 1

Question: For TAGAAGAGGCACATCATG, which remaining target (mRNA or protein) (fraction of control) [4] is on record?
Answer: 0.76

Question: For TATTTTATGTATTATCTT, which remaining target (mRNA or protein) (fraction of control) [4] is on record?
Answer: ≥ 1

Question: For TCAATACGAGACTGTAGT, which remaining target (mRNA or protein) (fraction of control) [4] is on record?
Answer: ≥ 1

Question: TCAGCAGTGTCAGCAATA was tested. Which remaining target (mRNA or protein) (fraction of control) [2] did it give?
Answer: ≥ 1

Question: For TCATGATGATGAAGCCGA, which remaining target (mRNA or protein) (fraction of control) [1] is on record?
Answer: 0.58

Question: How did the remaining target (mRNA or protein) (fraction of control) [1] turn out when TCATTAATTCCTCCTGAT was run?
Answer: 0.48

Question: For TCCAAATGACTTAAAGGCCA, which remaining target (mRNA or protein) (fraction of control) [3] is on record?
Answer: 0.68

Question: With TCCATCTGTTCTTTCTTT as the sequence, how does the remaining target (mRNA or protein) (fraction of control) [1] read?
Answer: 0.84

Question: TCCCCGTTTGAACTGGTA was tested. Which remaining target (mRNA or protein) (fraction of control) [1] did it give?
Answer: 0.63

Question: How did the remaining target (mRNA or protein) (fraction of control) [1] turn out when TCCGTGCTTGATGCCAGT was run?
Answer: 0.34

Question: For TCCTTTAAAAGTGGTTAT, which remaining target (mRNA or protein) (fraction of control) [1] is on record?
Answer: 0.93

Question: How did the remaining target (mRNA or protein) (fraction of control) [4] turn out when TCTCCTCCAGAACAGTAT was run?
Answer: ≥ 1

Question: Which remaining target (mRNA or protein) (fraction of control) [4] does the source give for TCTCGATGTATAATTTTG here?
Answer: ≥ 1

Question: With TCTGCCCTTTGCTGTCAT as the sequence, how does the remaining target (mRNA or protein) (fraction of control) [2] read?
Answer: 0.59

Question: TGAGCACACGGTCCTGAC was tested. Which remaining target (mRNA or protein) (fraction of control) [4] did it give?
Answer: 0.79

Question: With TGCACATTTGTCAGGTTT as the sequence, how does the remaining target (mRNA or protein) (fraction of control) [2] read?
Answer: 0.18

Question: Which remaining target (mRNA or protein) (fraction of control) [2] does the source give for TGCACTTCATCTATGTTG here?
Answer: 0.5

Question: With TGCCCAGCCGCTCCCGCA as the sequence, how does the remaining target (mRNA or protein) (fraction of control) [4] read?
Answer: 0.85

Question: For TGCCTTCCAGGTTCACTA, which remaining target (mRNA or protein) (fraction of control) [2] is on record?
Answer: 0.99

Question: How did the remaining target (mRNA or protein) (fraction of control) [2] turn out when TGCTGTGGGAAAACGGGC was run?
Answer: 0.43

Question: For TGCTTGGTCATAAAGGAT, which remaining target (mRNA or protein) (fraction of control) [1] is on record?
Answer: 0.74

Question: With TGGACAATCATGGTTTTCAC as the sequence, how does the remaining target (mRNA or protein) (fraction of control) [3] read?
Answer: 0.71

Question: How did the remaining target (mRNA or protein) (fraction of control) [1] turn out when TGGTTATTCAGTCAGTAG was run?
Answer: 0.71

Question: With TGTAGGCATCTCTCCCCACT as the sequence, how does the remaining target (mRNA or protein) (fraction of control) [3] read?
Answer: 0.42

Question: Which remaining target (mRNA or protein) (fraction of control) [4] does the source give for TGTGTAAGGCTTATTCTC here?
Answer: 0.91

Question: With TGTTCCAGAGATTCCATC as the sequence, how does the remaining target (mRNA or protein) (fraction of control) [4] read?
Answer: ≥ 1

Question: TTAAAAGTGGTTATTCAG was tested. Which remaining target (mRNA or protein) (fraction of control) [1] did it give?
Answer: 0.79

Question: TTAAACTACAAAGGCTAT was tested. Which remaining target (mRNA or protein) (fraction of control) [4] did it give?
Answer: ≥ 1

Question: For TTACTGAGGGCCACTTCC, which remaining target (mRNA or protein) (fraction of control) [4] is on record?
Answer: 0.48

Question: TTAGCAGGGTCGGATGAA was tested. Which remaining target (mRNA or protein) (fraction of control) [1] did it give?
Answer: 0.4

Question: TTCAGCCCACACTTTACG was tested. Which remaining target (mRNA or protein) (fraction of control) [4] did it give?
Answer: 0.58

Question: How did the remaining target (mRNA or protein) (fraction of control) [2] turn out when TTCATGGCACTGGTGGTA was run?
Answer: 0.85

Question: With TTCCCGATGCTGGTACAG as the sequence, how does the remaining target (mRNA or protein) (fraction of control) [4] read?
Answer: 0.63

Question: With TTCCTTTAAAAGTGGTTA as the sequence, how does the remaining target (mRNA or protein) (fraction of control) [1] read?
Answer: 0.71

Question: How did the remaining target (mRNA or protein) (fraction of control) [2] turn out when TTCTGAATCAGGTAAAGG was run?
Answer: ≥ 1

Question: How did the remaining target (mRNA or protein) (fraction of control) [4] turn out when TTCTTGAGAACCAGTATT was run?
Answer: ≥ 1

Question: With TTTAAAAGTGGTTATTCA as the sequence, how does the remaining target (mRNA or protein) (fraction of control) [1] read?
Answer: 0.74

Question: TTTCTCCCATCCCACTCA was tested. Which remaining target (mRNA or protein) (fraction of control) [2] did it give?
Answer: 0.87

Question: How did the remaining target (mRNA or protein) (fraction of control) [3] turn out when TTTGATTCTTTCATATTTTA was run?
Answer: 0.82
